Test results taken from patent publication US9156826B2, “Asymmetrical reversible neuromuscular blocking agents of ultra-short, short, or intermediate duration” (Cornell University, priority 2012, dated 2015).

Tested on: mean arterial pressure
Assay: Rise in mean arterial pressure after cysteine dosing
Conditions: 100 mg/kg

N[C@H](CS)C(=O)O [D-cysteine]
rise in mean arterial pressure compared with L-cysteine: less of a rise in mean arterial pressure than L-cysteine
